Nine molecules from ChEMBL document CHEMBL1201862, “PubChem BioAssay data set” (2004) can be followed below.

Among the test systems are HT-29; SK-OV-3; SK-MEL-5; DLD-1; HCT-15; NCI-H522; OVCAR-4; UACC-62; HOP-62; DMS-114; HOP-18; SF-295; DMS-273; RXF 393; M19-MEL; SK-MEL-2; SNB-75; U-251; MOLT-4; NCI-H226.
Common to all, as to assay: growth of human tumour cells (NCI), 48 h

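The compound was tested at five concentrations on cells cultured in 96-well plates, with a 48-hour exposure period. The concentration for 50% growth inhibition is given as GI50.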 Calls of active or inactive are those of the source. Rule as the data show it: active = GI50 up to about 1.1 µM and inactive = higher.

As to `CCCCN1C=CN2c3nc4cc(C)c(C)cc4n3C(C(=O)OC)=C(C(=O)OC)C12` (stereo unspecified), the GI50 was > 100 µM (inactive) in the assay on HT-29; > 100 µM (inactive) in the assay on SK-OV-3; > 100 µM (inactive) with SK-MEL-5; > 100 µM (inactive) in the assay with DLD-1; over 100 µM in the assay with HCT-15; > 100 µM (inactive) in the assay on NCI-H522. Besides, the GI50 in the assay on OVCAR-4, in the assay with UACC-62, in the assay with HOP-62, with DMS-114, in the assay with HOP-18 and in the assay on SF-295 was > 100 µM (inactive) throughout. Besides, the GI50 with DMS-273, in the assay on RXF 393, in the assay on M19-MEL, with SK-MEL-2, in the assay on SNB-75 and in the assay with U-251 was > 100 µM (inactive) throughout. Also, the GI50 in the assay on MOLT-4 is > 100 µM (inactive).
For the molecule `CC(C)=CCc1c(O)ccc2c1OC1c3ccc(O)c(CC=C(C)C)c3OCC21` (stereo unspecified), the GI50 in the assay with HT-29 is > 44.4 µM (inactive); in the assay on SK-OV-3, 19.2 µM (inactive); in the assay on SK-MEL-5 it was 5.98 µM (inactive); in the assay with DLD-1, 5.19 µM (inactive); in the assay on HCT-15, 3.96 µM; in the assay on NCI-H522, 11.3 µM (inactive). The GI50 in the assay on OVCAR-4 was 11.2 µM (inactive); in the assay with UACC-62, 5.64 µM (inactive); in the assay with HOP-62, 9.84 µM (inactive); in the assay on DMS-114 it was 11.4 µM (inactive); in the assay with HOP-18, 17.6 µM (inactive); in the assay with SF-295, 11.6 µM (inactive). The GI50 in the assay on DMS-273 is 6.4 µM (inactive); in the assay with RXF 393, 8.09 µM (inactive); in the assay on NCI-H226, 14 µM (inactive); in the assay with M19-MEL, 11.4 µM (inactive); with SK-MEL-2, 18 µM (inactive); in the assay with SNB-75, 15.9 µM (inactive). Besides, the GI50 in the assay with U-251 was 7.67 µM (inactive); with MOLT-4 it was 3.14 µM (inactive).
As for `COC(=O)C1=C(OC(=O)/C(=C/c2ccc(Cl)cc2)c2ccc(Cl)cc2)C(C(=O)OC)[C@]2(O)[C@@H](C(=O)OC)[C@H]1C[C@@H](c1ccccc1)[C@@H]2C(=O)OC` (stereo partly specified), the GI50 in the assay on HT-29 was > 100 µM (inactive); in the assay on SK-OV-3, 64 µM (inactive); with SK-MEL-5, > 100 µM (inactive); with HCT-15, over 100 µM; in the assay with NCI-H522, 3.85 µM (inactive); in the assay on OVCAR-4, > 100 µM (inactive). The GI50 in the assay with UACC-62 is > 100 µM (inactive); with HOP-62 it was 32.7 µM (inactive); with SF-295, 29.6 µM (inactive); with RXF 393, > 100 µM (inactive); with NCI-H226, > 100 µM (inactive); with SK-MEL-2, > 100 µM (inactive). In addition, the GI50 in the assay with SNB-75 was > 100 µM (inactive); in the assay on U-251 it was 26.5 µM (inactive); in the assay with MOLT-4, 2.22 µM (inactive).
Take `COc1cc(/C=C(\C#N)C(N)=O)cc(Br)c1O`: the GI50 in the assay on HT-29 was > 100 µM (inactive); in the assay on SK-OV-3 it was > 100 µM (inactive); in the assay on SK-MEL-5, > 100 µM (inactive); with DLD-1 it was 92 µM (inactive); in the assay with HCT-15, over 100 µM; in the assay with OVCAR-4, > 100 µM (inactive). Further, the GI50 was 92.3 µM (inactive) with HOP-62; > 100 µM (inactive) in the assay on HOP-18; > 100 µM (inactive) in the assay with SF-295; > 100 µM (inactive) in the assay with DMS-273; > 100 µM (inactive) in the assay on RXF 393; > 100 µM (inactive) with NCI-H226. Also, the GI50 in the assay on M19-MEL, in the assay on SK-MEL-2, in the assay on U-251 and in the assay with MOLT-4 was > 100 µM (inactive) each time.
As for `Cc1c(C2=NN=C(/N=N/c3c(O)cccc3O)/C2=C/c2ccccc2)c(=O)n(-c2ccccc2)n1C`, the GI50 with HT-29 is > 100 µM (inactive); in the assay on SK-OV-3, > 100 µM (inactive); in the assay with SK-MEL-5, > 100 µM (inactive); in the assay with DLD-1, > 100 µM (inactive); with HCT-15, over 100 µM; in the assay with NCI-H522, > 100 µM (inactive). In addition, the GI50 in the assay with OVCAR-4, with UACC-62, with HOP-62, with DMS-114, in the assay with HOP-18 and in the assay with SF-295 was > 100 µM (inactive) throughout. Also, the GI50 in the assay with DMS-273, in the assay on RXF 393, with NCI-H226, with M19-MEL, in the assay on SK-MEL-2 and in the assay on SNB-75 was > 100 µM (inactive) in each case. Moreover, the GI50 in the assay with U-251 and in the assay on MOLT-4 was > 100 µM (inactive) each time.
For `O=C1c2cccc3c2C(=O)c2c(cccc21)OCCOCCOCCOCCO3`, the GI50 was > 100 µM (inactive) in the assay on HT-29; > 100 µM (inactive) in the assay with SK-OV-3; 75.7 µM (inactive) in the assay on SK-MEL-5; > 100 µM (inactive) in the assay with DLD-1; over 100 µM in the assay on HCT-15; > 100 µM (inactive) in the assay with NCI-H522. Moreover, the GI50 was 74.6 µM (inactive) in the assay on OVCAR-4; > 100 µM (inactive) in the assay on UACC-62; > 100 µM (inactive) in the assay with HOP-62; 86.1 µM (inactive) with DMS-114; > 100 µM (inactive) in the assay with HOP-18; > 100 µM (inactive) in the assay with SF-295. Moreover, the GI50 is > 100 µM (inactive) with DMS-273; 78.2 µM (inactive) in the assay on RXF 393; 34.2 µM (inactive) in the assay with NCI-H226; > 100 µM (inactive) in the assay with M19-MEL; > 100 µM (inactive) in the assay on SK-MEL-2; 40.9 µM (inactive) with SNB-75. For the same molecule, the GI50 in the assay on U-251 is > 100 µM (inactive); in the assay on MOLT-4 it was 31.5 µM (inactive).
With `CC1(CO)C(O)CCC2(C)C1CCC1CC3CC12CCC3(O)CO` (stereo unspecified), the GI50 was 6.5 µM (inactive) in the assay with HT-29; > 100 µM (inactive) in the assay on SK-OV-3; 5.83 µM (inactive) in the assay on SK-MEL-5; > 100 µM (inactive) in the assay on DLD-1; over 24.8 µM with HCT-15; > 28.2 µM (inactive) in the assay with NCI-H522. Also, the GI50 was > 100 µM (inactive) in the assay with OVCAR-4; 0.789 µM (active) in the assay on UACC-62; 1.04 µM (active) in the assay with HOP-62; 2.34 µM (inactive) in the assay on DMS-114; 18.6 µM (inactive) in the assay on HOP-18; 2.19 µM (inactive) in the assay on SF-295. The GI50 in the assay with DMS-273 was 0.44 µM (active); with RXF 393, 20 µM (inactive); in the assay with NCI-H226, 21.2 µM (inactive); with M19-MEL, 26.2 µM (inactive); with SK-MEL-2 it was > 100 µM (inactive); in the assay on SNB-75, > 51.8 µM (inactive). In addition, the GI50 with U-251 is 4.53 µM (inactive); with MOLT-4, 5.12 µM (inactive).
For the molecule `CCCCCCCCCCCCCCCCCC(=O)OCC1OC(OC)C(NC(=O)N(CCCl)N=O)C(O)C1O` (stereo unspecified), the GI50 in the assay on HT-29 was 20.9 µM (inactive); in the assay on SK-MEL-5 it was 26.3 µM (inactive); in the assay with DLD-1, 28.1 µM (inactive); in the assay on HCT-15 it was 36.1 µM; with NCI-H522 it was 17.1 µM (inactive); in the assay with OVCAR-4 it was 24 µM (inactive). In addition, the GI50 is 2.99 µM (inactive) in the assay with UACC-62; > 100 µM (inactive) in the assay with HOP-62; 32.6 µM (inactive) with HOP-18; 14.9 µM (inactive) in the assay with SF-295; 16 µM (inactive) in the assay with DMS-273; 17 µM (inactive) in the assay on RXF 393. Further, the GI50 in the assay with NCI-H226 is 24.9 µM (inactive); in the assay with M19-MEL it was 71.4 µM (inactive); with SK-MEL-2, 45.9 µM (inactive); in the assay on SNB-75, 13.8 µM (inactive); in the assay with U-251, > 10 µM (inactive); in the assay on MOLT-4 it was 4.41 µM (inactive).
As for `C/C=C/c1cc(=O)c([C@@H]2OC(=O)c3cc(OC)cc(OC)c32)co1` [VERMISTATIN], the GI50 was 34.6 µM (inactive) in the assay on HT-29; 50.5 µM (inactive) with SK-MEL-5; 54.3 µM (inactive) in the assay on OVCAR-4; 25.9 µM (inactive) in the assay with UACC-62; 53 µM (inactive) in the assay with HOP-62; 21.7 µM (inactive) with DMS-114. Further, the GI50 with SF-295 is 39.5 µM (inactive); in the assay on RXF 393, 42.2 µM (inactive); with NCI-H226, 60.4 µM (inactive); in the assay on M19-MEL, 35.1 µM (inactive); with SK-MEL-2, 28.5 µM (inactive); with SNB-75, 6.49 µM (inactive). The GI50 in the assay with MOLT-4 is 38.6 µM (inactive).
